SMILES strings stand for the structures.

Chain of 5-hydroxytryptamine receptor 1B (P28564 whole entry): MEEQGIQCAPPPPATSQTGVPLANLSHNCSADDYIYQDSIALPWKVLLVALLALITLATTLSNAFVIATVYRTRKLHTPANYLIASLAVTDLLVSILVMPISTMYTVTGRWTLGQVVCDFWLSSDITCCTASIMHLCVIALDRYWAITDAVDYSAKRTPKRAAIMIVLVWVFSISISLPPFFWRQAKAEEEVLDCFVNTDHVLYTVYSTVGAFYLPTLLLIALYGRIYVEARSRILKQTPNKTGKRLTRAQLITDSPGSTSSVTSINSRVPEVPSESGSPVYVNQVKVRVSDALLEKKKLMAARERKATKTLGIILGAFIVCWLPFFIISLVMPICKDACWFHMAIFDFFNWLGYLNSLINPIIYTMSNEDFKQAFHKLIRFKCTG

In one assay the target is 5-hydroxytryptamine receptor 2A (Bos taurus, UniProt Q75Z89). Kind of assay: Affinity towards 5-hydroxytryptamine 2A receptor in membranes from bovine frontal cortex using [3H]ketanserin. Format: tissue-based.
Chain of 5-hydroxytryptamine receptor 2A (Q75Z89 whole entry): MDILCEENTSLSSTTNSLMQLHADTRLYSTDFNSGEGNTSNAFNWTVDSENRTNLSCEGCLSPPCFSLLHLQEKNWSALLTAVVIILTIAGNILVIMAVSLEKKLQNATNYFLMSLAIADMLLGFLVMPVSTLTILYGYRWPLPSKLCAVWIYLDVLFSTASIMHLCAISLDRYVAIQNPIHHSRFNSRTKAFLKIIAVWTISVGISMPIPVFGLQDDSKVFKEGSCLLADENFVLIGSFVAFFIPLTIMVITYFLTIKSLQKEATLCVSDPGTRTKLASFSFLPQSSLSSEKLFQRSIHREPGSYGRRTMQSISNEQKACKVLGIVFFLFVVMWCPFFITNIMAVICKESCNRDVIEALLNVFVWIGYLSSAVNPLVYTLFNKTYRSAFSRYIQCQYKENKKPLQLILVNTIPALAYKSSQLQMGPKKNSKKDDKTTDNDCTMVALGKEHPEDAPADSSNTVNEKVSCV
`Cn1c(=O)sc2cc(CCN3CCN(c4ccccc4)CC3)ccc21` returned an IC50 of 70 nM.

For `Oc1nc2ccc(CCN3CCN(c4ccccc4O)CC3)cc2s1`, the IC50 was found to be 530 nM.

In turn, `COc1ccccc1N1CCN(CCc2ccc3nc(O)sc3c2)CC1` returned an IC50 of 300 nM.

In turn, `COc1ccccc1N1CCN(CCc2ccc3c(c2)sc(=O)n3C)CC1` gave an IC50 of 500 nM. This IC50 is about 1.7-fold higher than that of the molecule before.

For `CN1C(=O)COc2cc(CCCCN3CCN(c4cccc(C(F)(F)F)c4)CC3)ccc21`, half-maximal inhibition (IC50) required 620 nM.

Molecule `COc1ccccc1N1CCN(CCc2ccc3c(c2)OCC(=O)N3C)CC1` showed an IC50 of 600 nM. The IC50 values of the last two molecules are within 1.5-fold of each other.

`COc1ccccc1N1CCN(CCCCc2ccc3[nH]c(=O)sc3c2)CC1` gave an IC50 of 150 nM.

Molecule `Cn1c(=O)sc2cc(CCN3CCN(c4cccc(C(F)(F)F)c4)CC3)ccc21` registered a half-inhibitory concentration (IC50) of 600 nM.

As for `COc1ccccc1N1CCN(CCCCc2ccc3c(c2)OCC(=O)N3C)CC1`, it took 840 nM to reach half-maximal inhibition (IC50).

For the next assay, the system named is Rattus norvegicus. Nature of the assay: effects on Sidman Avoidance performance in rats, number of escape failure (absolute change from control), dose(mg/Kg po) =8. In kind it is functional.
For the molecule `COc1ccccc1N1CCN(CCc2ccc3c(c2)sc(=O)n3C)CC1`, the “No. of escape failure” value was 5.8.

The subject of another assay is Mus musculus. Kind of assay: Compound was evaluated in vivo antagonism of mescaline-induced scratching(% vs controls), dose(mg/Kg ip)=4, p<0.001. Format: functional.
In turn, `CN1CCN(C2=Nc3cc(Cl)ccc3Nc3ccccc32)CC1` [CLOZAPINE] registered an Activity of 99.

In the case of `Oc1nc2ccc(CCN3CCN(c4ccccc4O)CC3)cc2s1`, the Activity amounted to 97.

In a further assay the test system is Rattus norvegicus. Kind of assay: Antagonism of PCP-induced stereotypies (%vs controls), dose(mg/Kg po) = 0.5. Format: functional.
In the case of `COc1ccccc1N1CCN(CCc2ccc3c(c2)sc(=O)n3C)CC1`, the Hypermotility amounted to 12.

The test system of a further assay is Rattus norvegicus. Kind of assay: effects on Sidman Avoidance performance in rats, number of escape failure (absolute change from control), p<0.01, dose(mg/Kg po) =1. Format: functional.
Take `O=C(CCCN1CCC(O)(c2ccc(Cl)cc2)CC1)c1ccc(F)cc1` [HALOPERIDOL]: the “No. of escape failure” value is 84.6.

The test system of a further assay is Rattus norvegicus. Kind of assay: Effects on Sidman Avoidance performance in rats, number of shocks (absolute change from control), dose (mg/Kg po) =8. In kind it is functional.
On to `COc1ccccc1N1CCN(CCc2ccc3c(c2)sc(=O)n3C)CC1`, for which the No. of shocks was 7.3.

Another assay deals with Rattus norvegicus. Kind of assay: effects on Sidman Avoidance performance in rats, number of Avoidance performance(% change from control) p<0.001 dose(mg/Kg po) =32. In kind it is functional.
As to `COc1ccccc1N1CCN(CCc2ccc3c(c2)sc(=O)n3C)CC1`, the No. of avoidance was 78.

The subject of another assay is Mus musculus. Kind of assay: Compound was evaluated in vivo antagonism of mescaline-induced scratching(% vs controls), dose(mg/Kg ip)=0.25. In kind it is functional.
As for `COc1ccccc1N1CCN(CCc2ccc3c(c2)sc(=O)n3C)CC1`, the Activity was found to be 92.

Another assay addresses 5-hydroxytryptamine receptor 1B (Rattus norvegicus, UniProt P28564). Kind of assay: Affinity towards 5-hydroxytryptamine 1B receptor in membranes from rat frontal cortex using [3H]5-HT. Format: tissue-based.
Regarding `Cn1c(=O)sc2cc(CCN3CCN(c4ccccc4)CC3)ccc21`, 200 nM corresponded to half-maximal inhibition (IC50).

In the case of `Oc1nc2ccc(CCN3CCN(c4ccccc4O)CC3)cc2s1`, half-maximal inhibition (IC50) was put at 260 nM.

With `COc1ccccc1N1CCN(CCc2ccc3nc(O)sc3c2)CC1`, the concentration for half-maximal inhibition (IC50) was found to be 20 nM.

`COc1ccccc1N1CCN(CCc2ccc3c(c2)sc(=O)n3C)CC1` showed an IC50 of 300 nM.

In the case of `CN1C(=O)COc2cc(CCCCN3CCN(c4cccc(C(F)(F)F)c4)CC3)ccc21`, the IC50 stood at 280 nM. This IC50 and that of the molecule before are within 1.5-fold of each other.

`COc1ccccc1N1CCN(CCc2ccc3c(c2)OCC(=O)N3C)CC1` had an IC50 of 180 nM.

The molecule `COc1ccccc1N1CCN(CCCCc2ccc3[nH]c(=O)sc3c2)CC1` showed an IC50 of 200 nM.

In the case of `Cn1c(=O)sc2cc(CCN3CCN(c4cccc(C(F)(F)F)c4)CC3)ccc21`, the IC50 was determined as 70 nM.

The test system of another assay is Rattus norvegicus. Kind of assay: effects on Sidman Avoidance performance in rats, number of Avoidance performance(% change from control), p<0.01,dose(mg/Kg po) =16. In kind it is functional.
`COc1ccccc1N1CCN(CCc2ccc3c(c2)sc(=O)n3C)CC1` registered a No. of avoidance of 38.

The next assay relates to Rattus norvegicus. Kind of assay: Antagonism of PCP-induced stereotypies (%vs controls), dose(mg/Kg po) = 2. In kind it is functional.
On to `COc1ccccc1N1CCN(CCc2ccc3c(c2)sc(=O)n3C)CC1`, for which the Hypermotility stood at 2.

A further assay deals with Mus musculus. Nature of the assay: Compound was evaluated in vivo antagonism of mescaline-induced scratching(% vs controls), dose(mg/Kg ip)=1, p<0.05.
`COc1ccccc1N1CCN(CCCCc2ccc3c(c2)OCC(=O)N3C)CC1` returned an Activity of 81.

Another assay relates to Rattus norvegicus. Nature of the assay: effects on Sidman Avoidance performance in rats, number of escape failure (absolute change from control), p<0.01, dose(mg/Kg po) =32. Format: functional.
With `CN1CCN(C2=Nc3cc(Cl)ccc3Nc3ccccc32)CC1` [CLOZAPINE], the “No. of escape failure” value came out at 53.8.

On to `COc1ccccc1N1CCN(CCc2ccc3c(c2)sc(=O)n3C)CC1`, for which the “No. of escape failure” value came to 63.6.

In another assay the test system is Mus musculus. Kind of assay: Compound was evaluated in vivo antagonism of mescaline-induced scratching(% vs controls), dose(mg/Kg ip)=2, ns.
`Oc1nc2ccc(CCN3CCN(c4ccccc4O)CC3)cc2s1`: the Activity was 71.

In turn, `CN1C(=O)COc2cc(CCCCN3CCN(c4cccc(C(F)(F)F)c4)CC3)ccc21` showed an Activity of 60.

In the next assay the test system is Rattus norvegicus. Nature of the assay: Effects on Sidman Avoidance performance in rats, number of Avoidance performance (% change from control), dose (mg/Kg po) = 8. Format: functional.
With `COc1ccccc1N1CCN(CCc2ccc3c(c2)sc(=O)n3C)CC1`, the No. of avoidance stood at 12.

The next assay concerns Mus musculus. Nature of the assay: Compound was evaluated in vivo antagonism of mescaline-induced scratching(% vs controls), dose(mg/Kg ip)=1. In kind it is functional.
Regarding `COc1ccccc1N1CCN(CCc2ccc3c(c2)sc(=O)n3C)CC1`, the Activity turned out to be 100.

The subject of another assay is Rattus norvegicus. Nature of the assay: effects on Sidman Avoidance performance in rats, number of shocks (absolute change from control),n=10 animals per group, dose(mg/Kg po) =16. In kind it is functional.
`COc1ccccc1N1CCN(CCc2ccc3c(c2)sc(=O)n3C)CC1` yielded a No. of shocks of 23.8.

The test system of a further assay is Rattus norvegicus. Kind of assay: Antagonism of SKF 10047 -induced hypermotility (% vs controls) dose(mg/Kg po) = 0.5. In kind it is functional.
For the molecule `COc1ccccc1N1CCN(CCc2ccc3c(c2)sc(=O)n3C)CC1`, the Hypermotility was determined as 39.

For a further assay, the system named is Rattus norvegicus. Kind of assay: effects on Sidman Avoidance performance in rats, number of shocks (absolute change from control), p<0.001, dose(mg/Kg po) =1. In kind it is functional.
For the molecule `O=C(CCCN1CCC(O)(c2ccc(Cl)cc2)CC1)c1ccc(F)cc1` [HALOPERIDOL], the No. of shocks is 99.7.

For the next assay, the system named is Rattus norvegicus. Kind of assay: Antagonism of SKF 10047 -induced hypermotility (% vs controls) dose(mg/Kg po) = 1.
`O=C(CCCN1CCC(O)(c2ccc(Cl)cc2)CC1)c1ccc(F)cc1` [HALOPERIDOL]: the Hypermotility amounted to 94.

In another assay the test system is Rattus norvegicus. Kind of assay: Antagonism of PCP-induced stereotypies (%vs controls), dose(mg/Kg po) = 8. In kind it is functional.
On to `COc1ccccc1N1CCN(CCc2ccc3c(c2)sc(=O)n3C)CC1`, for which the Hypermotility is reported as 21.

A further assay has as its system Rattus norvegicus. Kind of assay: Antagonism of SKF 10047 -induced hypermotility (% vs controls) dose(mg/Kg po) = 8. Format: functional.
`COc1ccccc1N1CCN(CCc2ccc3c(c2)sc(=O)n3C)CC1` came in with a Hypermotility of 71.

The next assay deals with Mus musculus. Nature of the assay: Tail suspension test in mice, dose(mg/Kg ip) = 4;duration of immobility(% vs controls). Format: functional.
`CN1CCN(C2=Nc3cc(Cl)ccc3Nc3ccccc32)CC1` [CLOZAPINE]: the Duration of immobility came to 90.

Turning to `Oc1nc2ccc(CCN3CCN(c4ccccc4O)CC3)cc2s1`, the Duration of immobility was found to be 92.

Turning to `COc1ccccc1N1CCN(CCc2ccc3c(c2)sc(=O)n3C)CC1`, the Duration of immobility is recorded as 89.

Molecule `O=C(CCCN1CCC(O)(c2ccc(Cl)cc2)CC1)c1ccc(F)cc1` [HALOPERIDOL] yielded a Duration of immobility of 65.

Turning to `COc1ccccc1N1CCN(CCCCc2ccc3c(c2)OCC(=O)N3C)CC1`, the Duration of immobility was 124.

A further assay has as its system Mus musculus. Kind of assay: Compound was evaluated in vivo antagonism of mescaline-induced scratching(% vs controls), dose(mg/Kg ip)=8, p<0.001. Format: functional.
As to `CN1C(=O)COc2cc(CCCCN3CCN(c4cccc(C(F)(F)F)c4)CC3)ccc21`, the Activity is recorded as 87.

Another assay deals with Rattus norvegicus. Kind of assay: effects on Sidman Avoidance performance in rats, number of escape failure (absolute change from control),n=10 animals per group, dose(mg/Kg po) =16. Format: functional.
For `COc1ccccc1N1CCN(CCc2ccc3c(c2)sc(=O)n3C)CC1`, the “No. of escape failure” value stood at 18.5.

The subject of another assay is Rattus norvegicus. Nature of the assay: effects on Sidman Avoidance performance in rats, number of shocks (absolute change from control), p<0.001, dose(mg/Kg po) =32. In kind it is functional.
The molecule `CN1CCN(C2=Nc3cc(Cl)ccc3Nc3ccccc32)CC1` [CLOZAPINE] returned a No. of shocks of 71.1.

Regarding `COc1ccccc1N1CCN(CCc2ccc3c(c2)sc(=O)n3C)CC1`, the No. of shocks is recorded as 87.8.

For a further assay, the target named is T1, Alpha-1A adrenergic receptor (Bos taurus, UniProt P18130).
T1 sequence (P18130 whole entry): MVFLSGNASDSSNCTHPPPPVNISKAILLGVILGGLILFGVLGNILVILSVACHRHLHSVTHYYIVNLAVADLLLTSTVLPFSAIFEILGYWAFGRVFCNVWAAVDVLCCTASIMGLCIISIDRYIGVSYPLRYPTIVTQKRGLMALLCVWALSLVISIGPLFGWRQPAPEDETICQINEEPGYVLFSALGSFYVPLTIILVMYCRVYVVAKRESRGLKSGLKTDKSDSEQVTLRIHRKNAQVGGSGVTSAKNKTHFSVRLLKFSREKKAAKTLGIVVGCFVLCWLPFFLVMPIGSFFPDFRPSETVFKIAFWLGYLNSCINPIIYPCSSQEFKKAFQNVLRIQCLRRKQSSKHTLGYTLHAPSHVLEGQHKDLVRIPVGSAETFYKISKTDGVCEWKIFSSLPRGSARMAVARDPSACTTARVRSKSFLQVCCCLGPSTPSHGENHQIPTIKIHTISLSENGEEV
Nature of the assay: Affinity towards Alpha-1A adrenergic receptor in membranes from bovine frontal cortex using [3H]prazosin. Format: tissue-based.
For `Cn1c(=O)sc2cc(CCN3CCN(c4ccccc4)CC3)ccc21`, the IC50 is > 100 nM.

As to `COc1ccccc1N1CCN(CCc2ccc3nc(O)sc3c2)CC1`, the midpoint of inhibition, the IC50, lay at 0.6 nM.

In turn, `COc1ccccc1N1CCN(CCc2ccc3c(c2)sc(=O)n3C)CC1` came in with a half-maximal inhibitory concentration (IC50) of 10 nM.

In turn, `CN1C(=O)COc2cc(CCCCN3CCN(c4cccc(C(F)(F)F)c4)CC3)ccc21` had an IC50 of 30 nM.

As for `COc1ccccc1N1CCN(CCc2ccc3c(c2)OCC(=O)N3C)CC1`, the IC50 amounted to 0.5 nM.

In turn, `COc1ccccc1N1CCN(CCCCc2ccc3[nH]c(=O)sc3c2)CC1` came in with an IC50 of 0.82 nM.

The molecule `Cn1c(=O)sc2cc(CCN3CCN(c4cccc(C(F)(F)F)c4)CC3)ccc21` came in with an IC50 of 400 nM.

In turn, `COc1ccccc1N1CCN(CCCCc2ccc3c(c2)OCC(=O)N3C)CC1` returned an IC50 of 20 nM.

In general, IC50 refers to the midpoint of a concentration-inhibition curve. Low values mean greater potency, high ones weaker potency.
